From patent publication US20230131966A1, “FUNGICIDAL AMIDES” (FMC Corporation, priority 2020, published 2023)

Tests used:
Format in all cases: in vivo
[1] = system: Phytophthora infestans; test: whole plant or invertebrate; conditions: tomato seedlings, 100 = 100% disease control, 0 = no control; for Test F disease control rating: 250 ppm; for pest or weed control at 250 ppm: Phytophthora infestans, in Solanum lycopersicum, read-out: Test F disease control rating, 250 ppm
[2] = system: Botrytis cinerea; test: Test E: tomato Botrytis control on tomato seedlings; conditions: 250 ppm, 100 = 100% disease control, 0 = no control; for pest or weed control at 250 ppm: Botrytis cinerea, read-out: Test E disease control rating
[3] = system: Erysiphe graminis f. sp. tritici; test: Test G: wheat powdery mildew control on wheat seedlings; conditions: 250 ppm, 100 = 100% disease control, 0 = no control; for pest or weed control at 250 ppm: Blumeria graminis, read-out: Test G disease control rating
[4] = system: Phakopsora pachyrhizi; test: Test A: Asian soybean rust control on soybean seedlings; conditions: 250 ppm, soybean seedlings, 100 = 100% disease control, 0 = no control; for pest or weed control at 250 ppm: Phakopsora pachyrhizi, read-out: Test A disease control rating
[5] = system: Zymoseptoria tritici; test: Test C: wheat leaf blotch control on wheat seedlings; conditions: 250 ppm, wheat seedlings, 100 = 100% disease control, 0 = no control
[6] = system: Puccinia recondita f. sp. tritici; test: Test B: wheat leaf rust control on wheat seedlings; conditions: 250 ppm, wheat seedlings, 100 = 100% disease control, 0 = no control
[7] = system: Plasmopara viticola; test: Test D: grape downy mildew control on grape seedlings; conditions: 250 ppm, 100 = 100% disease control, 0 = no control

Row | Compound | Test F disease control rating [1] [%] | Test E disease control rating [2] [%] | Test G disease control rating [3] [%] | Test A disease control rating [4] [%] | Test C disease control rating [5] [%] | Test B disease control rating [6] [%] | Test D disease control rating [7] [%] | pest or weed control at 250 ppm [1] [%] | pest or weed control at 250 ppm [2] [%] | pest or weed control at 250 ppm [3] [%] | pest or weed control at 250 ppm [4] [%] | pest or weed control at 250 ppm ([5]; Zymoseptoria tritici, read-out: Test C disease control rating) [%] | pest or weed control at 250 ppm ([6]; Puccinia recondita, read-out: Test B disease control rating) [%] | pest or weed control at 250 ppm ([7]; Plasmopara viticola, read-out: Test D disease control rating) [%]
1 | COc1ccnc(C(=O)N[C@@H](C)C(=O)OC(C)c2ccc(-n3ccc(C(F)(F)F)n3)cc2Cc2ccccc2)c1OC(C)=O (stereo partly shown) [Compound 94] | 0 | 0 | 0 | 38 | 82 | 92 | 10 | – | – | – | – | – | – | –
2 | COc1ccnc(C(=O)N[C@@H](C)C(=O)O[C@@H](C)c2ccc(C3CCCCC3)cc2)c1OC(C)=O [Compound 95, N-[[3-(acetyloxy)-4-methoxy-2-pyridinyl]carbonyl]-L-alanine (1S)-1-(4-cyclohexylphenyl)ethyl ester] | – | – | – | – | – | – | – | 0 | 0 | 0 | 100 | 100 | 100 | 1
3 | COc1ccnc(C(=O)NC(C)C(=O)OC(C)c2cccc3ccccc23)c1O (stereo not shown) [Compound 113] | – | – | – | – | 42 | 0 | 94 | 0 | 0 | 0 | 90 | – | – | –
4 | COc1ccnc(C(=O)NC(C)C(=O)OC(C)c2cccc3ccccc23)c1O (stereo not shown) [Compound 114] | 0 | 0 | 0 | 100 | 77 | 100 | 63 | – | – | – | – | – | – | –
5 | COc1ccnc(C(=O)N[C@@H](C)C(=O)OC(C)c2ccc(C(C)C)cc2)c1OC(C)=O (stereo partly shown) [Compound 117] | 0 | 0 | 0 | 100 | 94 | 100 | 71 | – | – | – | – | – | – | –
6 | COc1ccnc(C(=O)N[C@@H](C)C(=O)OC(C)c2ccc(C(C)C)cc2)c1O (stereo partly shown) [Compound 118] | 0 | 0 | 0 | 100 | 86 | 99 | 85 | – | – | – | – | – | – | –
7 | COc1ccnc(C(=O)N[C@@H](C)C(=O)OC(c2ccc(C3CCCCC3)cc2)C(F)(F)F)c1OC(C)=O (stereo partly shown) [Compound 119] | 0 | 0 | 48 | 100 | 88 | 99 | 27 | – | – | – | – | – | – | –
8 | COc1ccnc(C(=O)N[C@@H](C)C(=O)OC(c2ccc(C3CCCCC3)cc2)C(F)(F)F)c1O (stereo partly shown) [Compound 120] | 0 | 0 | 0 | 99 | 95 | 94 | 24 | – | – | – | – | – | – | –
9 | COc1ccnc(C(=O)N[C@@H](C)C(=O)OC(C)c2ccc(C(C)(C)C)cc2)c1OC(C)=O (stereo partly shown) [Compound 121] | 0 | 9 | 0 | 100 | 99 | 100 | 50 | – | – | – | – | – | – | –
10 | COc1ccnc(C(=O)N[C@@H](C)C(=O)OC(C)c2ccc(C(C)(C)C)cc2)c1O (stereo partly shown) [Compound 123] | 24 | 0 | 0 | 100 | 84 | 100 | 57 | – | – | – | – | – | – | –
